Test: Flavor release from chewing gum, mechanical mastication device with artificial saliva
Type: physicochemical
Settings: chewing gum with 2% flavor system
Procedure: To test if adequate flavor is released from chewing gum, the chewing gums made in Example 5 were tested using a mechanical instrument to simulate human mastication of chewing gum, which can be found in Kleber et al. A mastication device designed for the evaluation of chewing gum is set forth in Journal of Dental Research, 1981, 109-114, which is incorporated herein in its entirety. Artificial saliva (15 ml) was placed in the reservoir, and the thermostatically controlled heating element was turned on to maintain the saliva and gum at body temperature for proper chewing consistency. One stick of test chewing gum (approximately 3 grams with 2% flavor system added) was placed in the warmed chamber and the artificial saliva was exposed to the chewing gum for 1 minute under chewing simulation conditions. All the artificial saliva (15 ml) was removed as quickly as possible with a pipette, delivered immediately into a glass bottle and sealed. The saliva was replaced with a fresh 15 ml aliquot, the chewing conditions restarted and the gum samples were treated for another minute. […] Two markers, Marker 1, thymol, and Marker 2, menthol, were selected to monitor flavor release based on quantity and antimicrobial efficiency. […] It was estimated that enough flavor was released during the first 15-20 minutes to have antimicrobial activity based on the quantity released and the MIC results.

Cc1ccc(C(C)C)c(O)c1 [Marker 1, thymol]
release course over time of chewing: released constantly for the first 10 minutes and afterward decreases

— patent US11211249B2, “Herbal extracts and flavor systems for oral products and methods of making the same” (Sensient Flavors LLC, priority 2008, dated 2021)
